Results on one molecule are retold here after article PMC6323428, “Elucidation of the Intestinal Absorption Mechanism of Loganin in the Human Intestinal Caco-2 Cell Model” (Evidence-based Complementary and Alternative Medicine : eCAM, 2018).

On the set-up of data set [1]: method as in PMID 35540372. Conditions: rats; cited from earlier work.
For data set [2], the target named is T1, BCRP (Homo sapiens, UniProt Q9UNQ0).
T1 construct: endogenous in cells; host or cells: Caco-2 monolayers
T1 sequence (Q9UNQ0 1-655): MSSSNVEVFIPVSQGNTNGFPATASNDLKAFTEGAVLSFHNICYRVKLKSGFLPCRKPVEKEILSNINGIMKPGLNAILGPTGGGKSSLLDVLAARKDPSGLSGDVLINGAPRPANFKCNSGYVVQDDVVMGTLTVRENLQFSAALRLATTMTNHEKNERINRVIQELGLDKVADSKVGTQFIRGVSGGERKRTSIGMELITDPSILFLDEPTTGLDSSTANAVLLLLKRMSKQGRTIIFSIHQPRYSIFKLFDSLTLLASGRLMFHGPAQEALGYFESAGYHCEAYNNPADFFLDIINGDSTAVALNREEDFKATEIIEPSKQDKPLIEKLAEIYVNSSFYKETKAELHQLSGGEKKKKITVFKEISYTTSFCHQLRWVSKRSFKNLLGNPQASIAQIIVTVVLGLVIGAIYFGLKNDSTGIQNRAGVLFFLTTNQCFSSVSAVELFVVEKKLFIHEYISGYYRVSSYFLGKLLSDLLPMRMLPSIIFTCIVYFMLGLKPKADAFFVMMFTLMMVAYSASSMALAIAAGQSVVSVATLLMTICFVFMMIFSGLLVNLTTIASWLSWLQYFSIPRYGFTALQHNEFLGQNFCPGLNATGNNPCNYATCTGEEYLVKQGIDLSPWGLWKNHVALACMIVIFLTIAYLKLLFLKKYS
The data set can be described thus: Loganin transport across Caco-2 monolayers with BCRP inhibitor apigenin. Format: in vitro ADME. More on the design: key to Modulatory effect: +: Indicates that the inhibitor has significant effect on the loganin transport. As for the experimental part:
(§1) Before the experiments, the human intestinal Caco-2 cell monolayers were washed twice with HBSS medium (pH 7.4). The transport experiments were conducted by adding the drug solutions (containing 1% DMSO) to either the apical (AP, 0.5 mL) or basolateral side (BL, 1.0 mL), while the receiving chamber contained the corresponding volume of blank HBSS medium. The monolayers were incubated at 37°C, and 50 μL samples were taken at 15, 30, 45, 60, 90, and 120 min from the acceptor compartment, and the volume was then immediately replaced with50 μL of fresh, prewarmed blank HBSS. TEER measurements for assessing the membrane integrity took place before and after the experiment. The samples were frozen immediately and stored below −80°C before analysis.
(§2) Several efflux and influx transporters were investigated for their effects on the transport flux of loganin. One hundred μM verapamil was added to evaluate the selectivity of P-glycoprotein (P-gp); inhibiting the efflux by multidrug resistance-associated proteins (MRPs) was undertaken by adding 100μM MK571, 50μM benzbromarone, and 200μM indomethacin [21–23]; 25 μM apigenin was used to investigate breast cancer resistance protein (BCRP); 50 μM sodium vanadate and cimetidine were used as Na^+/K^+pump and […] inhibitors.
(§3) UPLC-MS/MS data acquisition was performed using Analyst 1.5.2 and MultiQuant 2.1.1 software (Applied Biosystems). The data were analyzed by SPSS Software. The apparent permeability coefficient (Papp) was calculated according to Papp = (dQ/dt)/(A·C0)
(§4) where dQ/dt is the steady-state flux (nmol/s), A is the surface area of the insert (cm^2); C0 is the initial concentration. The efflux ratio (P) was determined by calculating the ratio of PappBA versus PappAB as in(1) P=PappBA/PappAB Statistical analysis was performed with analysis of variance (ANOVA) after confirmation of normal distributions.
A general note: Caco-2 monolayers are a common model of the intestinal barrier.

Data set [3] has as its system T2, BCRP.
T2 construct: endogenous in cells; host or cells: Caco-2 monolayers
Described as above. Format: in vitro ADME, human. More on the design: key to Modulatory effect: +: Indicates that the inhibitor has significant effect on the loganin transport. Conditions: human, Caco-2, pH 7.4; with apigenin 25 μM, loganin 20 μM, n = 3. As for the experimental part:
as §1, §2, §3, §4

For data set [4] the following is noted: stated as well known, no reference given; cited from earlier work.
The nature of data set [5]: Bidirectional transport across Caco-2 cell monolayers (concentration, time, pH, temperature; control without inhibitor). Format: in vitro ADME, human. Conditions: human; for Papp A→B at 60 min, 20 µM: Caco-2, pH 7.4, loganin 20 μM, AP to BL. On the procedure: (§5) Cells were maintained in DMEM with 10% FBS, 1× nonessential amino acids, and 1× penicillin and streptomycin at 37°C with 5% CO2. Cells of passage 35-40 were used in this study to maintain relatively constant cellular phenotypes. The medium was replaced every 2-3 days during incubation. After reaching approximately 80% confluence, the cells were detached using 0.02% ethylenediaminetetraacetic acid (EDTA) and 0.05% trypsin at a density of 5.3×10^4 cells/cm^2 on a 60-mm plastic culture dish for the uptake experiment or a 12-mm polyester membrane insert in a 12-well plate for the permeation experiment. The media in the culture plates were changed every two days for the first week after seeding and replaced daily afterward. The integrity of the cell monolayers was examined by measuring the transepithelial electrical resistance (TEER) with a Millicell-ERS-electrode (Millipore Corp, Billerica, MA, USA). After 21-23 days, monolayers with a TEER value (TEER=[TEERtest- TEERbackground]×area) above 500Ωcm^2 were used during the transport experiments.
as §1
(§6) The loganin transport (20 μM) at 4°C and 37°C was evaluated in the AP to BL direction to investigate the effect of temperature. The effect of pH on the loganin transport (20 μM) in the AP to BL direction was studied using the following pH combinations for the HBSS in the acceptor/donor compartments: 6.0/7.4 and 7.4/7.4.
as §3, §4

Data set [6] deals with human intestinal Caco-2 cell monolayers. The data set is described as above. Format: in vitro ADME. As for the experimental part:
as §5, §1, §6, §3, §4

Data set [7] relates to T3, MRP2.
T3 construct: MRP2 and MRP3 were the main apically and basolaterally localized MRPs of the Caco-2 cells; endogenous in cells; host or cells: Caco-2 monolayers
The data set can be described thus: Loganin transport across Caco-2 monolayers with MRP2 inhibitor indomethacin. More on the design: key to Modulatory effect: +: Indicates that the inhibitor has significant effect on the loganin transport. Particulars: human, Caco-2, pH 7.4; with indomethacin 200 μM, loganin 20 μM, n = 3. Format: in vitro ADME, human. As for the experimental part: as §1, §2, §3, §4

The target of data set [8] is T4, MRP2 (Homo sapiens, UniProt Q92887).
T4 construct: MRP2 and MRP3 were the main apically and basolaterally localized MRPs of the Caco-2 cells; endogenous in cells; host or cells: Caco-2 monolayers
Described as above. Format: in vitro ADME. On the set-up: key to Modulatory effect: +: Indicates that the inhibitor has significant effect on the loganin transport. On the procedure: as §1, §2, §3, §4

Where [9] appears, read: Caco-2, pH 7.4, control, no inhibitor, loganin 20 μM, n = 3.

T4 sequence (Q92887 whole entry): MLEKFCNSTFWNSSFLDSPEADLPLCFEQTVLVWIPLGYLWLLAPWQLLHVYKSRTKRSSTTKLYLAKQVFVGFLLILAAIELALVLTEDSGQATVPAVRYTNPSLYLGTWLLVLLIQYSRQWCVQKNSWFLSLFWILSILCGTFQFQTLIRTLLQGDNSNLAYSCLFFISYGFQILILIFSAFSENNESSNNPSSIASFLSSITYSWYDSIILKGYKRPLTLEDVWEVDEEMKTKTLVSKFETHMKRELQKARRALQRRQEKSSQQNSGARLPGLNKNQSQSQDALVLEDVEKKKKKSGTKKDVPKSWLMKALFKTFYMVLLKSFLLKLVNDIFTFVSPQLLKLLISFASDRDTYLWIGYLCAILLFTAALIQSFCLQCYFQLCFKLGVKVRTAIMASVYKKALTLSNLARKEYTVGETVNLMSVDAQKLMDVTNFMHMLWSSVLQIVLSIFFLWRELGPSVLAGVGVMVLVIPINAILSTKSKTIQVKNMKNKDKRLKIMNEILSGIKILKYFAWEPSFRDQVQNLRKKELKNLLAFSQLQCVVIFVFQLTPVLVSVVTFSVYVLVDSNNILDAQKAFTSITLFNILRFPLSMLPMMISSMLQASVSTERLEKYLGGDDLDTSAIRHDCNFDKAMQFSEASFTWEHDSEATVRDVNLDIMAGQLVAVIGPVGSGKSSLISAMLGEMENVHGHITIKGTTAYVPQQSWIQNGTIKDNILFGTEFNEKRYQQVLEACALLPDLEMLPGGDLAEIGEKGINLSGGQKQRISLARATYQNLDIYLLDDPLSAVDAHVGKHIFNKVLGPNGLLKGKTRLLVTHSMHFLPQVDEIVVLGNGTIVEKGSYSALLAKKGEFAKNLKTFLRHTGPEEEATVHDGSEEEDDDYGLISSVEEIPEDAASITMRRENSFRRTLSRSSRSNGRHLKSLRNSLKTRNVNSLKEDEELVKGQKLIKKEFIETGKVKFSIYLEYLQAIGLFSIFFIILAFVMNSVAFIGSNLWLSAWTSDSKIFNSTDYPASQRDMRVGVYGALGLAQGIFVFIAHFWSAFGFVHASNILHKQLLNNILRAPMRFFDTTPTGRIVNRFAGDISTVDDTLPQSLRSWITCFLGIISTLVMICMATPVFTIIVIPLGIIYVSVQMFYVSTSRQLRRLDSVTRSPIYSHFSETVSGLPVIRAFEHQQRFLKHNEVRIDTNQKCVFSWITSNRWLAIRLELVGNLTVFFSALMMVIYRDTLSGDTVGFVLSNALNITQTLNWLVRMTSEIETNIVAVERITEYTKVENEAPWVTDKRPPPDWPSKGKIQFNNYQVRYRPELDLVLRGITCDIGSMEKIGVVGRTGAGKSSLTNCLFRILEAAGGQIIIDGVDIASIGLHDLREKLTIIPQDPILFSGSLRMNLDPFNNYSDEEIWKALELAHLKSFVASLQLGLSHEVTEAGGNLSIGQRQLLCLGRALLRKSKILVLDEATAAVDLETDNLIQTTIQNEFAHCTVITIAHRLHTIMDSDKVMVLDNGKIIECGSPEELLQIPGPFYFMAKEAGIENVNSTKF

As for `COC(=O)C1=CO[C@@H](O[C@@H]2O[C@H](CO)[C@@H](O)[C@H](O)[C@H]2O)[C@@H]2[C@@H](C)[C@@H](O)C[C@H]12` [loganin, Loganin], the “Oral bioavailability (in words)” value in data set [1] is “low”. The efflux ratio at 120 min on BCRP [2] (human, Caco-2, pH 7.4, with apigenin 25 μM, read-out: P (efflux ratio PappBA/PappAB)) came out at 0.41. Also, the “Substrate of BCRP (in words)” value on BCRP [2] (judged from apigenin vs control) was “substrate”. The Modulatory effect result on BCRP [2] (with apigenin 25 μM) and on MRP2 [8] (with indomethacin 200 μM) was “+” throughout. For the same molecule, the Papp A→B at 120 min, 20 μM in the data set with BCRP [3] turned out to be 30.1 ± 6.2 ×10⁻⁶ cm/s; in data set [5] (setting [9]), 13 ± 0.7 ×10⁻⁶ cm/s; with MRP2 [7], 24.7 ± 4.8 ×10⁻⁶ cm/s. In addition, the Papp B→A at 120 min, 20 μM with BCRP [3] is 12.3 ± 2.5 ×10⁻⁶ cm/s; in data set [5] (setting [9]), 11.7 ± 0.9 ×10⁻⁶ cm/s; with MRP2 [7], 4.4 ± 1.1 ×10⁻⁶ cm/s. The “Water solubility (in words)” value in data set [4] is “low”. Further, the results for the Papp A→B at 60 min, 20 µM in data set [5] (4°C) and in data set [5] (37°C) were 7.12 ×10⁻⁶ cm/s and 11.3 ×10⁻⁶ cm/s, respectively. Further, the efflux ratio at 120 min, 20 μM in data set [5] (Caco-2, pH 7.4, control, no inhibitor, loganin 20 μM, read-out: P (efflux ratio PappBA/PappAB)) is 0.9; on MRP2 [8] (human, Caco-2, pH 7.4, with indomethacin 200 μM, read-out: P (efflux ratio PappBA/PappAB)), 0.18. Moreover, the Papp A→B at 120 min in data set [5] (Caco-2, pH 7.4, range over 5, 20, 40 and 80 μM loganin, read-out: Absorptive permeability PappAB (AP to BL)) lay within 12.2 to 14.8 ×10⁻⁶ cm/s. For the same molecule, the Papp B→A at 120 min in data set [5] (Caco-2, pH 7.4, range over 5, 20, 40 and 80 μM loganin, read-out: Secretory permeability PappBA (BL to AP)) lay within 11.1 to 13 ×10⁻⁶ cm/s. Also, the “Intestinal absorption indicated by Papp values (in words)” value in data set [6] (classification by Papp > 1×10^−5cm/s = high absorption (>70%)) is “good intestinal absorption”. Further, the “PappAB at pH 7.4 compared with pH 6 (in words)” value in data set [6] (loganin 20 μM, AP to BL, 60 min, p<0.05) is “significantly higher”. Moreover, the “Increase of PappAB vs control” value on MRP2 [8] (with indomethacin, p < 0.01) is reported as 2.0 fold.
